Results published in publication PMC9329325, “Design, synthesis, in vitro biological assessment and molecular modeling insights for novel 3-(naphthalen-1-yl)-4,5-dihydropyrazoles as anticancer agents with potential EGFR inhibitory activity” (Scientific Reports, 2022).

test system: MDA-MB-231 cells; assay: Cell cycle analysis by PI flow cytometry; assay type: cell-based, human; details: at IC50 concentration (9g 0.62 µM, 9k 1.14 µM), 24 h, control 2.13%
Method: All the biological assays conducted in this study were performed as reported earlier; MTT cytotoxicity[31],[32] cell cycle, Annexin V-FITC Apoptosis[34]–[36] and EGFR kinase[37] assays, (Supplementary Materials). […]
The two examined breast cancer cell lines (MDA-MB-231 and T-47D) as well as the normal breast MCF-10A cells have been obtained from American Type Culture Collection (ATCC). Cells lines were maintained as monolayers in Dulbecco’s Modified Eagle’s Medium (DMEM) supplemented with 10% FBS, 2 mM L-glutamine, 100 U/ml penicillin and 100µg/ml streptomycin […]
sulfate. […]
Breast cancer MDA-MB-231 cells were treated with compounds 9g and 9k for 24 h (at their IC50 concentration), and then cells were washed twice with ice-cold phosphate buffered saline (PBS). Subsequently, the treated cells were collected by centrifugation, fixed in ice-cold 70% (v/v) ethanol, washed with PBS, re-suspended with 100 μg/mL RNase, stained with 40 μg/mL PI, and analyzed by flow cytometry using FACS Calibur (Becton Dickinson, BD, Franklin Lakes, NJ, USA). The cell cycle distributions were calculated using CellQuest software 5.1 (Becton

SMILES	%Sub-G1
COc1ccc(C=C2SC(N3N=C(c4cccc5ccccc45)CC3c3ccc(F)cc3)=NC2=O)cc1O (centres unmarked) [Compound 9g]	31.05%
CN(C)c1ccc(C=C2SC(N3N=C(c4cccc5ccccc45)CC3c3ccc(Cl)cc3)=NC2=O)cc1 (centres unmarked) [Compound 9k]	27.86%

same assay, conditions: at IC50 concentration (9g 0.62 µM, 9k 1.14 µM), 24 h, control 12.31%

SMILES	%G2/M
COc1ccc(C=C2SC(N3N=C(c4cccc5ccccc45)CC3c3ccc(F)cc3)=NC2=O)cc1O (centres unmarked) [Compound 9g]	2%

same assay, conditions: at IC50 concentration (9g 0.62 µM, 9k 1.14 µM), 24 h, control 32.11%

SMILES	%S
COc1ccc(C=C2SC(N3N=C(c4cccc5ccccc45)CC3c3ccc(F)cc3)=NC2=O)cc1O (centres unmarked) [Compound 9g]	35.43%
CN(C)c1ccc(C=C2SC(N3N=C(c4cccc5ccccc45)CC3c3ccc(Cl)cc3)=NC2=O)cc1 (centres unmarked) [Compound 9k]	28.45%

same assay, conditions: at IC50 concentration (9g 0.62 µM, 9k 1.14 µM), 24 h, control 53.45%

SMILES	%G0-G1
CN(C)c1ccc(C=C2SC(N3N=C(c4cccc5ccccc45)CC3c3ccc(Cl)cc3)=NC2=O)cc1 (centres unmarked) [Compound 9k]	40.61%

test system: T-47D; assay: MTT anti-proliferative assay, T-47D; assay type: cell-based, human; details: 48 h exposure, mean ± S.D. of 3 separate experiments
Method: (§1) The cytotoxic effects of herein prepared pyrazole- thiazol-4-one hybrids 9a-p against BC MDA-MB-231 and T-47D cell lines, obtained from American Type Culture Collection (ATCC), were determined using the MTT assay protocol. It is worth to mention that the selected cancer cell lines in this study are EGFR-expressing cell lines[25]–[28]. Doxorubicin and Erolitinib were utilized as positive control (Table 1).
(§2) All the biological assays conducted in this study were performed as reported earlier; MTT cytotoxicity[31],[32] cell cycle, Annexin V-FITC Apoptosis[34]–[36] and EGFR kinase[37] assays, (Supplementary Materials).
(§3) 1. Anti-proliferative activity
(§4) The two examined breast cancer cell lines (MDA-MB-231 and T-47D) as well as the normal breast MCF-10A cells have been obtained from American Type Culture Collection (ATCC). Cells lines were maintained as monolayers in Dulbecco’s Modified Eagle’s Medium (DMEM) supplemented with 10% FBS, 2 mM L-glutamine, 100 U/ml penicillin and 100µg/ml streptomycin sulfate. Cells were sub-cultured with trypsine /EDTA solution, counted with haemocytometer and plated onto 96-well plates (5000 cells/well) and left overnight to form a semi-confluent monolayer.
(§5) Cell monolayers were treated in quadrates with vehicle (DMSO, 0.1% v/v), test samples (thiazolyl-pyrazolines 9a-p) or Doxorubicin as positive control for an exposure time of 48 h. At the end of exposure, MTT solution in PBS (5 mg/ml) was then added to all well including no cell blank and left to incubate for 90 min. The formation of formazan crystals were visually confirmed using phase contract microscopy. DMSO (100 µl/well) was added to dissolve the formazan crystals with shaking for 10 min after which the absorbance was read at 590 nm against no cell blanks on a FLuo Star Optima microplate reader (BMG technologies, Germany). Cell proliferation was calculated comparing the OD values of the DMSO control wells and those of the samples represented as % proliferation to the control. Dose-response experiment was performed on samples producing > or =50% loss of cell proliferation using five serial 2-fold dilutions (50, 25, 12.5, 6.25 and 3.125 µM) of the sample. IC50 values (concentration of sample causing 50% loss of cell proliferation of the vehicle control) were calculated using non-linear regression curve fitting of the dose response plots on GraphPad Prism V.6.0 software. […]

IC50	IC50 T-47D	SMILES
> 100 µM	inactive	O=C1N=C(N2N=C(c3cccc4ccccc34)CC2c2ccc(Cl)cc2)S/C1=C/c1ccccc1 (centres unmarked) [Compound 9i]
> 100 µM	inactive	COc1ccccc1/C=C1/SC(N2N=C(c3cccc4ccccc34)CC2c2ccc(F)cc2)=NC1=O (centres unmarked) [Compound 9d]
> 100 µM	inactive	COc1ccccc1/C=C1/SC(N2N=C(c3cccc4ccccc34)CC2c2ccc(Cl)cc2)=NC1=O (centres unmarked) [Compound 9l]
> 100 µM	inactive	O=C1N=C(N2N=C(c3cccc4ccccc34)CC2c2ccc(F)cc2)S/C1=C/c1ccccc1 (centres unmarked) [Compound 9a]

same assay, conditions: Homo sapiens, T47D, 48 h, 48 h exposure, mean ± S.D. of 3 separate experiments

IC50	SMILES
19.5 ± 0.92 µM	COc1cc(/C=C2/SC(N3N=C(c4cccc5ccccc45)CC3c3ccc(Cl)cc3)=NC2=O)ccc1O (centres unmarked) [Compound 9p]
> 100 µM	O=C1N=C(N2N=C(c3cccc4ccccc34)CC2c2ccc(Cl)cc2)S/C1=C/c1ccccc1 (centres unmarked) [Compound 9i]
3.14 ± 0.11 µM	COc1ccc(C=C2SC(N3N=C(c4cccc5ccccc45)CC3c3ccc(F)cc3)=NC2=O)cc1O (centres unmarked) [Compound 9g]
> 100 µM	COc1ccccc1/C=C1/SC(N2N=C(c3cccc4ccccc34)CC2c2ccc(F)cc2)=NC1=O (centres unmarked) [Compound 9d]
11.4 ± 0.67 µM	COc1cc(/C=C2/SC(N3N=C(c4cccc5ccccc45)CC3c3ccc(F)cc3)=NC2=O)ccc1O (centres unmarked) [Compound 9h]
> 100 µM	COc1ccccc1/C=C1/SC(N2N=C(c3cccc4ccccc34)CC2c2ccc(Cl)cc2)=NC1=O (centres unmarked) [Compound 9l]
7.36 ± 0.3 µM	COc1ccc(/C=C2/SC(N3N=C(c4cccc5ccccc45)CC3c3ccc(Cl)cc3)=NC2=O)cc1O (centres unmarked) [Compound 9o]
> 100 µM	O=C1N=C(N2N=C(c3cccc4ccccc34)CC2c2ccc(F)cc2)S/C1=C/c1ccccc1 (centres unmarked) [Compound 9a]
4.92 ± 0.28 µM	CN(C)c1ccc(C=C2SC(N3N=C(c4cccc5ccccc45)CC3c3ccc(Cl)cc3)=NC2=O)cc1 (centres unmarked) [Compound 9k]

test system: MDA-MB-231; assay: MTT anti-proliferative assay, MDA-MB-231; assay type: cell-based, human; details: 48 h exposure, mean ± S.D. of 3 separate experiments
Method: as §1, §2, §3, §4, §5

IC50	SMILES
6.55 ± 0.357 µM	COc1cc(/C=C2/SC(N3N=C(c4cccc5ccccc45)CC3c3ccc(Cl)cc3)=NC2=O)ccc1O (centres unmarked) [Compound 9p]
5.82 ± 0.317 µM	COc1cc(/C=C2/SC(N3N=C(c4cccc5ccccc45)CC3c3ccc(F)cc3)=NC2=O)ccc1O (centres unmarked) [Compound 9h]

same assay, conditions: Homo sapiens, MDA-MB-231, 48 h, 48 h exposure, mean ± S.D. of 3 separate experiments

IC50	SMILES
10.8 ± 0.59 µM	COc1cc(/C=C2/SC(N3N=C(c4cccc5ccccc45)CC3c3ccc(Cl)cc3)=NC2=O)ccc1O (centres unmarked) [Compound 9p]
24.7 ± 1.35 µM	O=C1N=C(N2N=C(c3cccc4ccccc34)CC2c2ccc(Cl)cc2)S/C1=C/c1ccccc1 (centres unmarked) [Compound 9i]
45 ± 2.45 µM	COc1ccccc1/C=C1/SC(N2N=C(c3cccc4ccccc34)CC2c2ccc(F)cc2)=NC1=O (centres unmarked) [Compound 9d]
< 10 µM	COc1cc(/C=C2/SC(N3N=C(c4cccc5ccccc45)CC3c3ccc(F)cc3)=NC2=O)ccc1O (centres unmarked) [Compound 9h]
58 ± 3.16 µM	COc1ccccc1/C=C1/SC(N2N=C(c3cccc4ccccc34)CC2c2ccc(Cl)cc2)=NC1=O (centres unmarked) [Compound 9l]
10.8 ± 0.59 µM	COc1ccc(/C=C2/SC(N3N=C(c4cccc5ccccc45)CC3c3ccc(Cl)cc3)=NC2=O)cc1O (centres unmarked) [Compound 9o]
19.8 ± 1.08 µM	O=C1N=C(N2N=C(c3cccc4ccccc34)CC2c2ccc(F)cc2)S/C1=C/c1ccccc1 (centres unmarked) [Compound 9a]

test system: MCF-10A; assay: MTT cytotoxicity toward normal breast MCF-10A cells; assay type: cell-based; details: Homo sapiens, 48 h exposure, mean ± S.D. of 3 separate experiments
Method: as §2, §3, §4, §5

SMILES	IC50
COc1cc(/C=C2/SC(N3N=C(c4cccc5ccccc45)CC3c3ccc(Cl)cc3)=NC2=O)ccc1O (centres unmarked) [Compound 9p]	83.6 ± 6.74 µM
COc1ccc(C=C2SC(N3N=C(c4cccc5ccccc45)CC3c3ccc(F)cc3)=NC2=O)cc1O (centres unmarked) [Compound 9g]	31.7 ± 3.1 µM
COc1cc(/C=C2/SC(N3N=C(c4cccc5ccccc45)CC3c3ccc(F)cc3)=NC2=O)ccc1O (centres unmarked) [Compound 9h]	79.5 ± 5.27 µM
CN(C)c1ccc(C=C2SC(N3N=C(c4cccc5ccccc45)CC3c3ccc(Cl)cc3)=NC2=O)cc1 (centres unmarked) [Compound 9k]	58.5 ± 4.36 µM

target: EGFR (Homo sapiens, UniProt P00533); assay: EGFR kinase inhibitory activity (ADP-Glo Kinase Assay); details: not given
Sequence (P00533 25-1210): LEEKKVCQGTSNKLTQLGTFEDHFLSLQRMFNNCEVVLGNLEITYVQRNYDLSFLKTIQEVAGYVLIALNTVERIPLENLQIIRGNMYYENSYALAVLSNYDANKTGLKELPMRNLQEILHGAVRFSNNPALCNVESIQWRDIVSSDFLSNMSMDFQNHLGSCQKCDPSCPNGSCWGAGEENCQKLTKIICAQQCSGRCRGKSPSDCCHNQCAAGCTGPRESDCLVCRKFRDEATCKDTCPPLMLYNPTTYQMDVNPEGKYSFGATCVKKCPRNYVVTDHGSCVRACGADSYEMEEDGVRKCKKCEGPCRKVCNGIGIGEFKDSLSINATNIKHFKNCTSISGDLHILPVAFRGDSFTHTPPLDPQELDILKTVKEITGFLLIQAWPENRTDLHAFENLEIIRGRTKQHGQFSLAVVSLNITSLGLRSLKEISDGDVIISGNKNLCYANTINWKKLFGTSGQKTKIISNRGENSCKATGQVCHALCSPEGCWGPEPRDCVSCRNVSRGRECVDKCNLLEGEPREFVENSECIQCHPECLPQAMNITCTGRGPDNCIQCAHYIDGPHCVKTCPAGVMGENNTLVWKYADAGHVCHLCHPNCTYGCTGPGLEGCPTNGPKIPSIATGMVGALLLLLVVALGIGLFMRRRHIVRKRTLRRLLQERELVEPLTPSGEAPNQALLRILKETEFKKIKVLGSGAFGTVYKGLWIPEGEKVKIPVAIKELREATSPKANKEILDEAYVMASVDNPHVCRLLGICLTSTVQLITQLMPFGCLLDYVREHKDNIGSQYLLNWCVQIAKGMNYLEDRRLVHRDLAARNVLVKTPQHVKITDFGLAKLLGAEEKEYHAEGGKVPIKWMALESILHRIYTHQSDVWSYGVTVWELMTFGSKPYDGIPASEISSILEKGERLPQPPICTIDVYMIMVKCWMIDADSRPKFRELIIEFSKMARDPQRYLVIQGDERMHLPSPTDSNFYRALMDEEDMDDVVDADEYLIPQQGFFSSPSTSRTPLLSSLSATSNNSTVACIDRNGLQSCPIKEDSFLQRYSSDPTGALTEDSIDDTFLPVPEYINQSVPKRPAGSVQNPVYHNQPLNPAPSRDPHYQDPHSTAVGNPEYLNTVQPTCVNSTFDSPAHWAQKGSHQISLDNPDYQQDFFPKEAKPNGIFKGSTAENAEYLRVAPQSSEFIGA

IC50	SMILES
0.267 ± 0.012 µM	COc1ccc(C=C2SC(N3N=C(c4cccc5ccccc45)CC3c3ccc(F)cc3)=NC2=O)cc1O (centres unmarked) [Compound 9g]
0.395 ± 0.017 µM	CN(C)c1ccc(C=C2SC(N3N=C(c4cccc5ccccc45)CC3c3ccc(Cl)cc3)=NC2=O)cc1 (centres unmarked) [Compound 9k]

test system: MDA-MB-231 cells; assay: Annexin V-FITC/PI apoptosis assay; assay type: cell-based, human; details: at IC50 concentration (9g 0.62 µM, 9k 1.14 µM), 48 h, control 0.21%
Method: as §2
3. Annexin V-FITC Apoptosis Assay
Phosphatidylserine externalization was assayed using Annexin V-FITC/PI apoptosis detection kit (BD Biosciences, USA) according to the manufacturer’s instructions. Breast cancer MDA-MB-231 cells were cultured to a monolayer then treated with compounds 9g and 9k at their IC50 concentration. Briefly, cells were then harvested via trypsinization, and rinsed twice in PBS followed by binding buffer. Moreover, cells were re-suspended in 100 μL of binding buffer with the addition of 1 μL of FITC-Annexin V followed by an incubation period of 30 min at 4 °C. Cells were then rinsed in binding buffer and resuspended in 150 μL of binding buffer with the addition

SMILES	Late apoptosis (upper right %)
COc1ccc(C=C2SC(N3N=C(c4cccc5ccccc45)CC3c3ccc(F)cc3)=NC2=O)cc1O (centres unmarked) [Compound 9g]	23.93%
CN(C)c1ccc(C=C2SC(N3N=C(c4cccc5ccccc45)CC3c3ccc(Cl)cc3)=NC2=O)cc1 (centres unmarked) [Compound 9k]	20%

same assay, conditions: at IC50 concentration (9g 0.62 µM, 9k 1.14 µM), 48 h, control 0.73%

SMILES	Early apoptosis (lower right %)
COc1ccc(C=C2SC(N3N=C(c4cccc5ccccc45)CC3c3ccc(F)cc3)=NC2=O)cc1O (centres unmarked) [Compound 9g]	8.39%
CN(C)c1ccc(C=C2SC(N3N=C(c4cccc5ccccc45)CC3c3ccc(Cl)cc3)=NC2=O)cc1 (centres unmarked) [Compound 9k]	14.22%

same assay, conditions: at IC50 concentration (9g 0.62 µM, 9k 1.14 µM), 48 h, control 0.94%

SMILES	Total apoptosis (L.R % + U.R %)
COc1ccc(C=C2SC(N3N=C(c4cccc5ccccc45)CC3c3ccc(F)cc3)=NC2=O)cc1O (centres unmarked) [Compound 9g]	32.32%
CN(C)c1ccc(C=C2SC(N3N=C(c4cccc5ccccc45)CC3c3ccc(Cl)cc3)=NC2=O)cc1 (centres unmarked) [Compound 9k]	34.22%
